Here are results for three molecules from patent US20110152166A1, “METHOD OF MODULATION OF PROTEIN PHOSPHORYLATION-DEPENDENT CONFORMATIONAL TRANSITIONS WITH LOW MOLECULAR WEIGHT COMPOUNDS” (priority 2006, published 2011).

Holding throughout (assay type): biochemical
For one experiment, the target named is T1, PDK1 [Phe224Trp] (Homo sapiens, UniProt O15530, F224W).
T1 construct: the catalytic domain of PDK1 (50-359) produced in SF9 insect cells; His-tag (N, cleaved yes); made in house; host or cells: insect cells (baculovirus)
T1 sequence (O15530 50-359 F224W): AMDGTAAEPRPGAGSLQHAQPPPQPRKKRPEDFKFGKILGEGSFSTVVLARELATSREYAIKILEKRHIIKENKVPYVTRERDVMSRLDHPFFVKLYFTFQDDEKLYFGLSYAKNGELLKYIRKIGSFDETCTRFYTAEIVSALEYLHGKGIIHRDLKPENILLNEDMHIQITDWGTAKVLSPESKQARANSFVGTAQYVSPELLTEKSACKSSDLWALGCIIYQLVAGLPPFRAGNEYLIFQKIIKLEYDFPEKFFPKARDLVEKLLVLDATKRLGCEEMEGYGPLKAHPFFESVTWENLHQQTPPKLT
Nature of the experiment: PDK1 activity assay with T308tide. As to conditions: catalytic domain 50-360. How it is done:
(§1) FIG. 6—A mutation at Thr226 in PDK1 uncouples the ligand binding to the HM/PIF-pocket from activation of the kinase. The catalytic domain (CD) of PDK1 50-360 and its mutants Phe224Trp and Thr226Trp were expressed in insect cells and purified. (A) PDK1 activity was measured in the presence or absence of the HM-polypeptide PIFtide or compound 1 using T308tide as a substrate. PDK1 CD wt and PDK1 [Phe224Trp] were activated by PIFtide and compound 1 whereas PDK1 CD [Thr226Trp] mutant was not activated. (B,C,D,E) PDK1 [Phe224Trp] and PDK1 [Thr226Trp] retain significant binding to P-HM polypeptides and PIFtide. Surface plasmon resonance measurements were carried out on a BiaCore system to evaluate the binding affinities of PDK1 CD wt, PDK1 [Phe224Trp] and PDK1 [Thr226Trp] to HM-polypeptides. Biotin-P-HM-polypeptide derived from S6K1 was immobilized on a streptavidin-coated sensor chip and the specific interaction with PDK1 was recorded. (B) The direct binding of PDK1 CD wt to biotin-P-HM-S6K was recorded at the indicated concentrations of PDK1 CD. The Kd (0.05 μM) was estimated based on the response units obtained at each concentration at equilibrium (insert).
(§2) Protein kinase activity tests were performed essentially as previously described (Balendran et al., 2000; Biondi et al., 2000; Biondi et al., 2001). Substrates used were either MBP (for PKCζ or polypeptides (Crosstide for PKB, S6K, SGK and PRK2; T308tide for PDK1, and Kemptide for PKA). PKA (Sigma) was measured in the presence of 100 μM cAMP. Alternatively, assays were performed in a 96 well format, aliquots spotted on p81 phosphocellulose papers (Whatmann), washed in 0.01% phosphoric acid, dried, and then exposed and analysed using Phospholmager technology (Storm, Molecular Dynamics). Activity measurements were performed in duplicates with less than 10% difference between duplicate pairs. Experiments were repeated at least twice, although most of the experiments were repeated multiple times, with similar results.
(§3) PDK1 activity assay was performed in a 20 μl mix containing 50 mM Tris-HCl pH 7.5, 0.05 mg/ml BSA, 0.1% β-mercaptoethanol, 10 mM MgCl2, 100 μM [γ^32P]ATP (5-50 cpm/pmol), 0.003% Brij, 150 ng PDK1, and T308tide (from 0.05 to 1 mM). PDK1 specific activity was approximately 5 U/mg (when measured at 1 mM T308tide). The effect of small compounds on PDK1 was repeated with proteins from different purification batches and with different protein constructs, comprising the full length protein or the catalytic domain alone, with similar results. […] This variability may be due to the PIFtide/compound-stimulated autophosphorylation of the activation loop in certain preparations having less than a 1:1 molar phosphorylation stoichiometry at this site.

The target in a further experiment is T2, PDK1 [Thr226Trp] (Homo sapiens, UniProt O15530, T226W).
T2 construct: the catalytic domain of PDK1 (50-359) produced in SF9 insect cells; His-tag (N, cleaved yes); made in house; host or cells: insect cells (baculovirus)
T2 sequence (O15530 50-359 T226W): as the sequence (O15530 50-359 F224W) above, with W175F, T177W counted along it
Nature of the experiment: PDK1 activity assay with T308tide. The settings on record: catalytic domain 50-360. How it is done:
as §1, §2, §3

For the next experiment, the target named is T3, PKCζ (Homo sapiens, UniProt Q05513).
T3 construct: deuteron uptake in a full-length AGC kinase; For this analysis we chose PKCζ; made in house; host or cells: HEK293
T3 sequence (Q05513 1-592): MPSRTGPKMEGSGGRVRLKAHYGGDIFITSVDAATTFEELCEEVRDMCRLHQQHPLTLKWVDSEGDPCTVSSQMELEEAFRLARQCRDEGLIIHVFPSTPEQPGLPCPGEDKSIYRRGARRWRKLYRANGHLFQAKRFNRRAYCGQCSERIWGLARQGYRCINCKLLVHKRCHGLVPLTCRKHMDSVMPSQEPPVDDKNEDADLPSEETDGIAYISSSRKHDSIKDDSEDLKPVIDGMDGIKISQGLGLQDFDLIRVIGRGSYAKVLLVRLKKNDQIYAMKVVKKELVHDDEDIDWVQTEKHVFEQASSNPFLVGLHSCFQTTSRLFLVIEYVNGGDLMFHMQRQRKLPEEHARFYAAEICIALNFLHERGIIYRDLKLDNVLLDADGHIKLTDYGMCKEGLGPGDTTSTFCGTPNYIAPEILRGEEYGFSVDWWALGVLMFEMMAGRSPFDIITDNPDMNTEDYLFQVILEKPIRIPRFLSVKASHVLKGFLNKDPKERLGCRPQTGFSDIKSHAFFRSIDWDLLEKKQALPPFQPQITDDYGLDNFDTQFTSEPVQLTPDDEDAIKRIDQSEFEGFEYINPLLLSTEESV
Put plainly: AGC kinase panel activity assay (MBP). The settings on record: for PKCξ (%) activity: 1% DMSO = 100%. As to the method:
as §2
Activity assays for each kinase were performed as described in Materials and Methods in the presence of 1% DMSO (100%). Except PKA, all protein kinases were produced as a GST-fusion. S6K1, PKBα, SGK mutants used were S6K1-T2-[Thr412Glu], PKBa[Ser473Asp] and ΔN-SGK[Ser422Asp].

Ends that are not written are not given here.

Regarding `O=C(O)CSC(CC(=O)c1ccc(Cl)cc1)c1ccccc1` (stereo not shown) [Compound 1], on PDK1 [Phe224Trp], the “activation of PDK1 [Phe224Trp] (in words)” value is recorded as “activated”. The “activation of PDK1 [Thr226Trp] (in words)” value at PDK1 [Thr226Trp] was “not activated”. For the same molecule, the “effect on PKCζ activity (in words)” value on PKCζ (20 μM) is reported as “no significant effect”. In addition, the “PKCξ (%) activity” value on PKCζ (20 μM compound) amounted to 94%; at PKCζ (200 μM compound) it was 21%. Also, on PKCζ (panel, concentration not given), the “inhibition of PKCζ (in words)” value is “inhibited PKCζ”.
For `COC(=O)CSC(CC(=O)c1ccc(Cl)cc1)c1ccccc1` (stereo not shown) [Compound 2], the “PKCξ (%) activity” value at PKCζ (20 μM compound) came out at 104%; on PKCζ (200 μM compound), 86%.
In the case of “REPRILSEEEQEMFRDFDYIADWC [PIFtide, reference compound]”, on PDK1 [Phe224Trp], the “activation of PDK1 [Phe224Trp] (in words)” value is “activated”. Also, the “activation of PDK1 [Thr226Trp] (in words)” value at PDK1 [Thr226Trp] is reported as “not activated”.
